Laboratory results from ChEMBL document CHEMBL3046451, “Design, synthesis, characterization, and in vitro antimicrobial action of novel trisubstituted s-triazines” (2012).
≈ marks a conversion by molar mass, not a printed value.

Tests used:
Candida albicans [1] = assay: Antifungal activity against Candida albicans MTCC 183 after 48 hr by agar streak dilution method; assay type: functional; details: MTCC 183, 48 h
Candida albicans [2] = assay: Antifungal activity against Candida albicans MTCC 183 at 50 ug/disk after 24 hr by paper disk diffusion method; assay type: functional; details: MTCC 183, 24 h, read-out: IZ
Aspergillus niger [3] = assay: Antifungal activity against Aspergillus niger MTCC 282 after 48 hr by agar streak dilution method; assay type: functional; details: MTCC 282, 48 h
Aspergillus niger [4] = assay: Antifungal activity against Aspergillus niger MTCC 282 at 50 ug/disk after 24 hr by paper disk diffusion method; assay type: functional; details: MTCC 282, 24 h, read-out: IZ
Bacillus cereus [5] = assay: Antibacterial activity against Bacillus cereus MTCC 619 after 24 hr by agar streak dilution method; assay type: functional; details: MTCC 619, 24 h
Aspergillus niger [6] = assay: Antifungal activity against Aspergillus niger MTCC 282 after 24 hr by paper disk diffusion method; assay type: functional
Shigella flexneri [7] = assay: Antibacterial activity against Shigella flexneri MTCC 1457 after 24 hr by agar streak dilution method; assay type: functional; details: MTCC 1457, 24 h
Escherichia coli [8] = assay: Antibacterial activity against Escherichia coli MTCC 739 after 24 hr by paper disk diffusion method; assay type: functional
Klebsiella pneumoniae [9] = assay: Antibacterial activity against Klebsiella pneumoniae MTCC 109 after 24 hr by agar streak dilution method; assay type: functional; details: MTCC 109, 24 h
Escherichia coli [10] = assay: Antibacterial activity against Escherichia coli MTCC 739 after 24 hr by agar streak dilution method; assay type: functional; details: MTCC 739, 24 h
Salmonella typhi [11] = assay: Antibacterial activity against Salmonella enterica subsp. enterica serovar Typhi MTCC 733 after 24 hr by paper disk diffusion method; assay type: functional
Klebsiella pneumoniae [12] = assay: Antibacterial activity against Klebsiella pneumoniae MTCC 109 after 24 hr by paper disk diffusion method; assay type: functional
Staphylococcus aureus [13] = assay: Antibacterial activity against Staphylococcus aureus MTCC 96 after 24 hr by paper disk diffusion method; assay type: functional
Staphylococcus aureus [14] = assay: Antibacterial activity against Staphylococcus aureus MTCC 96 after 24 hr by agar streak dilution method; assay type: functional; details: MTCC 96, 24 h
Proteus vulgaris [15] = assay: Antibacterial activity against Proteus vulgaris MTCC 1771 after 24 hr by agar streak dilution method; assay type: functional; details: MTCC 1771, 24 h
Proteus vulgaris [16] = assay: Antibacterial activity against Proteus vulgaris MTCC 1771 after 24 hr by paper disk diffusion method; assay type: functional
Salmonella typhi [17] = assay: Antibacterial activity against Salmonella enterica subsp. enterica serovar Typhi MTCC 733 after 24 hr by agar streak dilution method; assay type: functional; details: MTCC 733, 24 h
Candida albicans [18] = assay: Antifungal activity against Candida albicans MTCC 183 after 24 hr by paper disk diffusion method; assay type: functional
Bacillus cereus [19] = assay: Antibacterial activity against Bacillus cereus MTCC 619 after 24 hr by paper disk diffusion method; assay type: functional
Pseudomonas aeruginosa [20] = assay: Antibacterial activity against Pseudomonas aeruginosa MTCC 741 after 24 hr by agar streak dilution method; assay type: functional; details: MTCC 741, 24 h
Pseudomonas aeruginosa [21] = assay: Antibacterial activity against Pseudomonas aeruginosa MTCC 741 after 24 hr by paper disk diffusion method; assay type: functional
Shigella flexneri [22] = assay: Antibacterial activity against Shigella flexneri MTCC 1457 after 24 hr by paper disk diffusion method; assay type: functional
Pseudomonas aeruginosa [23] = assay: microbe, parasite or virus in culture; details: MTCC 741, 24 h, read-out: IZ
Description: Antibacterial activity against Pseudomonas aeruginosa MTCC 741 at 50 ug/disk after 24 hr by paper disk diffusion method

Shigella flexneri [24] = assay: Antibacterial activity against Shigella flexneri MTCC 1457 at 50 ug/disc after 24 hr by paper disk diffusion method; assay type: functional; details: MTCC 1457, 24 h, read-out: IZ
Salmonella typhi [25] = assay: Antibacterial activity against Salmonella enterica subsp. enterica serovar Typhi MTCC 733 at 50 ug/disk after 24 hr by paper disk diffusion method; assay type: functional; details: MTCC 733, 24 h, read-out: IZ
Escherichia coli [26] = assay: microbe, parasite or virus in culture; details: MTCC 739, 24 h, read-out: IZ
Description: Antibacterial activity against Escherichia coli MTCC 739 at 50 ug/disk after 24 hr by paper disk diffusion method

Klebsiella pneumoniae [27] = assay: microbe, parasite or virus in culture; details: MTCC 109, 24 h, read-out: IZ
Description: Antibacterial activity against Klebsiella pneumoniae MTCC 109 at 50 ug/disk after 24 hr by paper disk diffusion method

Staphylococcus aureus [28] = assay: Antibacterial activity against Staphylococcus aureus MTCC 96 at 50 ug/disc after 24 hr by paper disk diffusion method; details: MTCC 96, 24 h, read-out: IZ
Bacillus cereus [29] = assay: Antibacterial activity against Bacillus cereus MTCC 619 at 50 ug/disk after 24 hr by paper disk diffusion method; assay type: functional; details: MTCC 619, 24 h, read-out: IZ
Proteus vulgaris [30] = assay: Antibacterial activity against Proteus vulgaris MTCC 1771 at 50 ug/disk after 24 hr by paper disk diffusion method; assay type: functional; details: MTCC 1771, 24 h, read-out: IZ

CC(=O)N1CCN(c2ccc(OCC3COC(Cn4ccnc4)(c4ccc(Cl)cc4Cl)O3)cc2)CC1 (centres undefined) [KETOCONAZOLE]
MIC (Candida albicans [1]): 1 µg/mL (≈ 1.88 µM) | zone of inhibition at 50 µg/disc (Candida albicans [2]): 17 mm | MIC (Aspergillus niger [3]): ≤ 3 µg/mL | zone of inhibition at 50 µg/disc (Aspergillus niger [4]): 16 mm

COc1ccc2[nH]cc(CCNc3nc(Nc4ccc(C#N)cc4)nc(Oc4cc(=O)n(C)c5ccccc45)n3)c2c1
MIC (Candida albicans [1]): 25 µg/mL (≈ 44.8 µM) | MIC (Bacillus cereus [5]): 25 µg/mL (≈ 44.8 µM) | inhibition zone (IZ) (Aspergillus niger [6]): 12 mm | MIC (Shigella flexneri [7]): 50 µg/mL (≈ 89.5 µM) | inhibition zone (IZ) (Escherichia coli [8]): 9 mm | MIC (Klebsiella pneumoniae [9]): 50 µg/mL (≈ 89.5 µM) | MIC (Escherichia coli [10]): 50 µg/mL (≈ 89.5 µM) | inhibition zone (IZ) (Salmonella typhi [11]): <5 mm | inhibition zone (IZ) (Klebsiella pneumoniae [12]): 10 mm | MIC (Aspergillus niger [3]): 25 µg/mL (≈ 44.8 µM) | inhibition zone (IZ) (Staphylococcus aureus [13]): 15 mm | MIC (Staphylococcus aureus [14]): 6.25 µg/mL (≈ 11.2 µM) | MIC (Proteus vulgaris [15]): 50 µg/mL (≈ 89.5 µM) | inhibition zone (IZ) (Proteus vulgaris [16]): 6 mm | MIC (Salmonella typhi [17]): 50 µg/mL (≈ 89.5 µM) | inhibition zone (IZ) (Candida albicans [18]): 15 mm | inhibition zone (IZ) (Bacillus cereus [19]): 13 mm | MIC (Pseudomonas aeruginosa [20]): 50 µg/mL (≈ 89.5 µM) | inhibition zone (IZ) (Pseudomonas aeruginosa [21]): 9 mm | inhibition zone (IZ) (Shigella flexneri [22]): 12 mm

O=C(O)c1cn(C2CC2)c2cc(N3CCNCC3)c(F)cc2c1=O [CIPROFLOXACIN]
MIC (Bacillus cereus [5]): 1 µg/mL (≈ 3.02 µM) | zone of inhibition at 50 µg/disc (Pseudomonas aeruginosa [23]): 15 mm | zone of inhibition at 50 µg/disc (Shigella flexneri [24]): 17 mm | zone of inhibition at 50 µg/disc (Salmonella typhi [25]): 16 mm | zone of inhibition at 50 µg/disc (Escherichia coli [26]): 18 mm | zone of inhibition at 50 µg/disc (Klebsiella pneumoniae [27]): 16 mm | MIC (Shigella flexneri [7]): ≤ 3 µg/mL | zone of inhibition at 50 µg/disc (Staphylococcus aureus [28]): 17 mm | MIC (Klebsiella pneumoniae [9]): 1 µg/mL (≈ 3.02 µM) | zone of inhibition at 50 µg/disc (Bacillus cereus [29]): 16 mm | MIC (Staphylococcus aureus [14]): 1 µg/mL (≈ 3.02 µM) | zone of inhibition at 50 µg/disc (Proteus vulgaris [30]): 17 mm | MIC (Proteus vulgaris [15]): 1 µg/mL (≈ 3.02 µM) | MIC (Salmonella typhi [17]): 1 µg/mL (≈ 3.02 µM) | MIC (Pseudomonas aeruginosa [20]): 1 µg/mL (≈ 3.02 µM)

Cn1c(=O)cc(Oc2nc(Nc3ccc(C#N)cc3)nc(NC3CC3)n2)c2ccccc21
MIC (Candida albicans [1]): 50 µg/mL (≈ 118 µM) | MIC (Bacillus cereus [5]): 25 µg/mL (≈ 58.8 µM) | inhibition zone (IZ) (Aspergillus niger [6]): 10 mm | MIC (Shigella flexneri [7]): 50 µg/mL (≈ 118 µM) | inhibition zone (IZ) (Escherichia coli [8]): 7 mm | MIC (Klebsiella pneumoniae [9]): 25 µg/mL (≈ 58.8 µM) | MIC (Escherichia coli [10]): 50 µg/mL (≈ 118 µM) | inhibition zone (IZ) (Salmonella typhi [11]): <5 mm | inhibition zone (IZ) (Klebsiella pneumoniae [12]): 11 mm | MIC (Aspergillus niger [3]): 50 µg/mL (≈ 118 µM) | inhibition zone (IZ) (Staphylococcus aureus [13]): <5 mm | MIC (Staphylococcus aureus [14]): 50 µg/mL (≈ 118 µM) | MIC (Proteus vulgaris [15]): 50 µg/mL (≈ 118 µM) | inhibition zone (IZ) (Proteus vulgaris [16]): 8 mm | MIC (Salmonella typhi [17]): 50 µg/mL (≈ 118 µM) | inhibition zone (IZ) (Candida albicans [18]): 8 mm | inhibition zone (IZ) (Bacillus cereus [19]): 11 mm | MIC (Pseudomonas aeruginosa [20]): 50 µg/mL (≈ 118 µM) | inhibition zone (IZ) (Pseudomonas aeruginosa [21]): 6 mm | inhibition zone (IZ) (Shigella flexneri [22]): <5 mm
